# In US20240002401A1, “IMIDAZOTHIAZOLE COMPOUNDS, PHARMACEUTICAL COMPOSITIONS, AND USES THEREOF” (GUANGZHOU HENOVCOM BIOSCIENCE CO., LTD., priority 2020, published 2024):
# pIC50: −log10 of the molar value.
# Key:
# ATX = ATX (Homo sapiens, UniProt Q13822); experiment: Enzyme activity screening in vitro with LPC as substrate (Amplex Red fluorescence); format: biochemical; conditions: inhibitory activity against ATX
# Source text: Analysis In Vitro: LPC was Used as Substrate for Screening Enzyme Activity
# Principle: Lysophosphatidylcholine (LPC) as substrate is hydrolyzed by using the activity of lysoPLD enzyme, to produce lysophosphatidic acid (LPA) and choline, which is oxidized to produce H2O2 under the action of choline oxidase. In presence of horse radish peroxidase (HPR), Amplex Red reagent is reacted with H2O2 in a quantitative chemistry ratio of 1 to 1, to produce strong fluorescence products, which are detected by a fluorescent quantitative test.
# 20 μl of the above mixed solution 1 was added to each hole of an experiment board, […]. The compounds diluted with DMSO were transferred into an experiment board with Echo550. The reaction buffer solution was used for preparing a mixed solution 2 of […] LPC and 400 μM Amplex Red in a final concentration. 20 μl of the above mixed solution 2 was added to each hole of the experiment board. After addition, the experiment board was shook for 30 seconds on a shaker, and incubated for 30 minutes. Envision was used to read the fluorescence signals with an exciting light at 530 nm and emitted light at 590 nm.
# [1] = Pharmacokinetics test in mice; format: in vivo; conditions: male SD mice; for F: absolute bioavailability, oral 5 mg/kg vs intravenous 1 mg/kg; for AUC / half-life: mouse, plasma
# Source text: Pharmacokinetics Test in Mice
# Male SD mice were selected for pharmacokinetics test study, plasma concentration at different time points were quantitatively determined by LC/MS/MS method after the mice were intravenously injected and orally administrated with the compounds to be tested, thereby evaluating pharmacokinetics characteristic of the compounds to be tested in SD mice.
# SD mice (free food and drink, 6 to 8 weeks old) were intravenously administrated via a foot injection with a clear solution of the compounds to be tested, alternatively, SD mice (free food and drink, 6 to 8 week old) were intragastrically administrated with a suspension of the compounds to be tested. Blood samples were collected from the tail veins of the mice 0.083, 0.25, 0.5, 1, 2, 4, 6, 8, 10, and 24 hours after administration, and each sampling was 0.15 mL. All collected blood samples were placed into centrifuge tubes with EDTA-K2, turned upside and down to mix the anticoagulant with the blood well. The plasma was separated by centrifugation at 1500 g for 10 min at 4° C. within […]. The plasma sample was transferred into a new centrifuge tube and stored at −90° C. to −60° C. until the analysis was performed. LC-MS/MS was used to measure the blood concentration of the compounds to be tested of the present disclosure, and the pharmacokinetic parameters, as well as absolute bioavailability, were calculated by a non-compartment model in Pharsight Phoenix 8.0 software, as shown in Table 2.
# [2] = Intravenous injection (1 mg/kg)
pIC50 (ATX),SMILES,also measured
7.00 to 11.00,"CCc1nc2sc(C3CCN(CC(=O)NCC(F)F)CC3)cn2c1N(CC)c1nc(-c2ccc(F)cc2)c(C#N)s1 [Embodiment 11, 2-(4-(5-((5-cyano-4-(4-fluorophenyl)thiazol-2-yl)(ethyl)amino)-6-ethylimidazo[2,1-b]thiazol-2-yl)piperidin-1-yl)-N-(2,2-difluoroethyl)acetamide]","F [1]: 42%; AUC [1, 2]: 907 ng·h/mL; half-life [1, 2]: 4.69 h; AUC ([1]; Oral administration (5 mg/kg)): 1730 ng·h/mL; half-life ([1]; Oral administration (5 mg/kg)): 4.4 h"
6.30 to 7.00,"CCc1nc2sc(C3CCN(CC(=O)NCCO)CC3)cn2c1N(CC)c1nc(-c2ccc(F)cc2)c(C#N)s1 [Embodiment 3, 2-(4-(5-((5-cyano-4-(4-fluorophenyl)thiazol-2-yl)(ethyl)amino)-6-ethylimidazo[2,1-b]thiazol-2-yl]piperidin-1-yl)-N-(2-hydroxyethyl)acetamide]",–
7.00 to 11.00,"CCc1nc2sc(C3CCN(CC(=O)NCC4CCC4)CC3)cn2c1N(CC)c1nc(-c2ccc(F)cc2)c(C#N)s1 [Embodiment 19, 2-(4-(5-((5-cyano-4-(4-fluorophenyl)thiazol-2-yl)(ethyl)amino)-6-ethylimidazo[2,1-b]thiazol-2-yl)piperidin-1-yl)-N-(cyclobutylmethyl)acetamide]",–
7.00 to 11.00,"CCc1nc2sc(C3CCN(CC(=O)N4CC(O)C4)CC3)cn2c1N(c1nc(-c2ccc(F)cc2)c(C#N)s1)C(C)C [Embodiment 25, 2-((6-ethyl-2-(1-(2-(3-hydroxyazetidin-1-yl)-2-oxoethyl)piperidin-4-yl)imidazo[2,1-b]thiazol-5-yl)(isopropyl)amino)-4-(4-fluorophenyl)thiazole-5-carbonitrile]","F [1]: 55%; AUC [1, 2]: 732 ng·h/mL; half-life [1, 2]: 3.11 h; AUC ([1]; Oral administration (5 mg/kg)): 1900 ng·h/mL; half-life ([1]; Oral administration (5 mg/kg)): 3.83 h"
7.00 to 11.00,"CCc1nc2sc(C3CCN(CC(=O)NCC(C)(C)CO)CC3)cn2c1N(CC)c1nc(-c2ccc(F)cc2)c(C#N)s1 [Embodiment 9, 2-(4-(5-((5-cyano-4-(4-fluorophenyl)thiazol-2-yl)(ethyl)amino)-6-ethylimidazo[2,1-b]thiazol-2-yl)piperidin-1-yl)-N-(3-hydroxy-2,2-dimethylpropyl)acetamide]",–
7.00 to 11.00,"CCc1nc2sc(C3CCN(CC(=O)N(C)CCO)CC3)cn2c1N(CC)c1nc(-c2ccc(F)cc2)c(C#N)s1 [Embodiment 4, 2-(4-(5-((5-cyano-4-(4-fluorophenyl)thiazol-2-yl)(ethyl)amino)-6-ethylimidazo[2,1-b]thiazol-2-yl]piperidin-1-yl)-N-(2-hydroxyethyl)-N-methylacetamide]",–
7.00 to 11.00,"CCc1nc2sc(C3CCN(CC(=O)NC4(CO)CC4)CC3)cn2c1N(CC)c1nc(-c2ccc(F)cc2)c(C#N)s1 [Embodiment 12, 2-(4-(5-((5-cyano-4-(4-fluorophenyl)thiazol-2-yl)(ethyl)amino)-6-ethylimidazo[2,1-b]thiazol-2-yl)piperidin-1-yl)-N-(1-(hydroxymethyl)cyclopropyl)acetamide]",–
7.00 to 11.00,"CCc1nc2sc(C3CCN(CC(=O)N(C)CCC#N)CC3)cn2c1N(CC)c1nc(-c2ccc(F)cc2)c(C#N)s1 [Embodiment 10, 2-(4-(5-((5-cyano-4-(4-fluorophenyl)thiazol-2-yl)(ethyl)amino)-6-ethylimidazo[2,1-b]thiazol-2-yl)piperidin-1-yl)-N-(2-cyanoethyl)-N-methylacetamide]",–
7.00 to 11.00,"CCc1nc2sc(C3CCN(CC(=O)NC4CCOCC4)CC3)cn2c1N(CC)c1nc(-c2ccc(F)cc2)c(C#N)s1 [Embodiment 23, 2-(4-(5-((5-cyano-4-(4-fluorophenyl)thiazol-2-yl)(ethyl)amino)-6-ethylimidazo[2,1-b]thiazol-2-yl)piperidin-1-yl)-N-(tetrahydro-2H-pyran-4-yl)acetamide]","F [1]: 70%; AUC [1, 2]: 1180 ng·h/mL; half-life [1, 2]: 4.18 h; AUC ([1]; Oral administration (5 mg/kg)): 4190 ng·h/mL; half-life ([1]; Oral administration (5 mg/kg)): 3.93 h"
7.00 to 11.00,"CCc1nc2sc(C3CCN(CC(=O)NC(C)(C)CO)CC3)cn2c1N(CC)c1nc(-c2ccc(F)cc2)c(C#N)s1 [Embodiment 14, 2-(4-(5-((5-cyano-4-(4-fluorophenyl)thiazol-2-yl)(ethyl)amino)-6-ethylimidazo[2,1-b]thiazol-2-yl)piperidin-1-yl)-N-(1-hydroxy-2-methylpropan-2-yl)acetamide]",–
6.30 to 7.00,"CCc1nc2sc(C3CCN(CC(=O)NC4CC(F)(F)C4)CC3)cn2c1N(CC)c1nc(-c2ccc(F)cc2)c(C#N)s1 [Embodiment 17, 2-(4-(5-((5-cyano-4-(4-fluorophenyl)thiazol-2-yl)(ethyl)amino)-6-ethylimidazo[2,1-b]thiazol-2-yl)piperidin-1-yl)-N-(3,3-difluorocyclobutyl)acetamide]",–
7.00 to 11.00,"CCc1nc2sc(C3CCN(CC(=O)NCC(C)(C)O)CC3)cn2c1N(CC)c1nc(-c2ccc(F)cc2)c(C#N)s1 [Embodiment 8, 2-(4-(5-((5-cyano-4-(4-fluorophenyl)thiazol-2-yl)(ethyl)amino)-6-ethylimidazo[2,1-b]thiazol-2-yl)piperidin-1-yl)-N-(2-hydroxy-2-methylpropyl)acetamide]",–
6.30 to 7.00,"CCc1nc2sc(C3CCN(CC(=O)NCC4CC4)CC3)cn2c1N(CC)c1nc(-c2ccc(F)cc2)c(C#N)s1 [Embodiment 18, 2-(4-(5-((5-cyano-4-(4-fluorophenyl)thiazol-2-yl)(ethyl)amino)-6-ethylimidazo[2,1-b]thiazol-2-yl)piperidin-1-yl)-N-(cyclopropylmethyl)acetamide]",–
7.00 to 11.00,"CCc1nc2sc(C3CCN(CC(=O)NCC4(O)CCC4)CC3)cn2c1N(CC)c1nc(-c2ccc(F)cc2)c(C#N)s1 [Embodiment 16, 2-(4-(5-((5-cyano-4-(4-fluorophenyl)thiazol-2-yl)(ethyl)amino)-6-ethylimidazo[2,1-b]thiazol-2-yl)piperidin-1-yl)-N-((1-hydroxycyclobutyl)methyl) acetamide]",–
7.00 to 11.00,"CCc1nc2sc(C3CCN(CC(=O)NC4CCOCC4)CC3)cn2c1N(c1nc(-c2ccc(F)cc2)c(C#N)s1)C(C)C [Embodiment 26, 2-(4-(5-((5-cyano-4-(4-fluorophenyl)thiazol-2-yl)(isopropyl)amino)-6-ethylimidazo[2,1-b]thiazol-2-yl)piperidin-1-yl)-N-(tetrahydro-2H-pyran-4-yl)acetamide]",–
7.00 to 11.00,"CCc1nc2sc(C3CCN(CC(=O)NC4COC4)CC3)cn2c1N(c1nc(-c2ccc(F)cc2)c(C#N)s1)C(C)C [Embodiment 27, 2-(4-(5-((5-cyano-4-(4-fluorophenyl)thiazol-2-yl)(isopropyl)amino)-6-ethylimidazo[2,1-b]thiazol-2-yl)piperidin-1-yl)-N-(oxacyclobut-3-yl)acetamide]",–
7.00 to 11.00,"CCc1nc2sc(C3CCN(CC(=O)NC4CC(O)C4)CC3)cn2c1N(CC)c1nc(-c2ccc(F)cc2)c(C#N)s1 (centres unmarked) [Embodiment 5, 2-(4-(5-((5-cyano-4-(4-fluorophenyl)thiazol-2-yl)(ethyl)amino)-6-ethylimidazo[2,1-b]thiazol-2-yl]piperidin-1-yl)-N-(3-hydroxycyclobutyl)acetamide]",–
7.00 to 11.00,"CCc1nc2sc(C3CCN(CC(=O)N4CC(O)C4)CC3)cn2c1N(CC(F)(F)F)c1nc(-c2ccc(F)cc2)c(C#N)s1 [Embodiment 6, 2-((6-ethyl-2-(1-(2-(3-hydroxyazetidin-1-yl)-2-oxoethyl)piperidin-4-yl)imidazo[2,1-b]thiazol-5-yl)(2,2,2,-trifluoroethyl)amino)-4-(4-fluorophenyl)thiazole-5-carbonitrile]",–
6.30 to 7.00,"CCc1nc2sc(C3CCN(CC(=O)NCC4(O)CC4)CC3)cn2c1N(CC)c1nc(-c2ccc(F)cc2)c(C#N)s1 [Embodiment 15, 2-(4-(5-((5-cyano-4-(4-fluorophenyl)thiazol-2-yl)(ethyl)amino)-6-ethylimidazo[2,1-b]thiazol-2-yl)piperidin-1-yl)-N-((1-hydroxycyclopropyl)methyl)acetamide]",–
6.30 to 7.00,"CCc1nc2sc(C3CCN(CC(=O)NC(C)CO)CC3)cn2c1N(CC)c1nc(-c2ccc(F)cc2)c(C#N)s1 (centres unmarked) [Embodiment 13, 2-(4-(5-((5-cyano-4-(4-fluorophenyl)thiazol-2-yl)(ethyl)amino)-6-ethylimidazo[2,1-b]thiazol-2-yl)piperidin-1-yl)-N-(1-hydroxypropan-2-yl)acetamide]",–
